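A five-concentration, 48-hour dose response in 96-well plates underlies each endpoint, interpolated linearly between surrounding concentrations. GI50 is the concentration that inhibits growth by half. TGI marks complete inhibition of growth.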
Assays:
Experiment in all cases: NCI anticancer screen, dose series, 48 h
786-0 renal = tested on: 786-0 renal
UACC-62 melanoma = tested on: UACC-62 melanoma
K-562 leukemia = tested on: K-562 leukemia
NCI/ADR-RES ovarian = tested on: NCI/ADR-RES ovarian
SNB-19 CNS = tested on: SNB-19 CNS
CCRF-CEM leukemia = tested on: CCRF-CEM leukemia
RXF 393 renal = tested on: RXF 393 renal
DU-145 prostate = tested on: DU-145 prostate
IGROV1 ovarian = tested on: IGROV1 ovarian
OVCAR-8 ovarian = tested on: OVCAR-8 ovarian
TK-10 renal = tested on: TK-10 renal
SW-620 colon = tested on: SW-620 colon
A498 renal = tested on: A498 renal
SN12C renal = tested on: SN12C renal
HCT-116 colon = tested on: HCT-116 colon
T-47D breast = tested on: T-47D breast
HL-60(TB) leukemia = tested on: HL-60(TB) leukemia
SK-OV-3 ovarian = tested on: SK-OV-3 ovarian
KM12 colon = tested on: KM12 colon
LOX IMVI melanoma = tested on: LOX IMVI melanoma
HS 578T breast = tested on: HS 578T breast
RPMI-8226 leukemia = tested on: RPMI-8226 leukemia
MDA-MB-435 = tested on: MDA-MB-435
MDA-MB-231 breast = tested on: MDA-MB-231 breast
OVCAR-5 ovarian = tested on: OVCAR-5 ovarian
SNB-75 CNS = tested on: SNB-75 CNS
MCF7 breast = tested on: MCF7 breast
SK-MEL-5 melanoma = tested on: SK-MEL-5 melanoma
SR leukemia = tested on: SR leukemia

Compound: OCc1ccc(-c2csc(-c3ccc(CO)o3)c2)o1
- GI50 (786-0 renal): 69.5 µM
- TGI (786-0 renal): > 100 µM
- GI50 (UACC-62 melanoma): 0.767 µM
- TGI (UACC-62 melanoma): 33.7 µM
- GI50 (K-562 leukemia): 11.6 µM
- TGI (K-562 leukemia): > 100 µM
- GI50 (NCI/ADR-RES ovarian): 26.9 µM
- TGI (NCI/ADR-RES ovarian): > 100 µM
- GI50 (SNB-19 CNS): > 76.4 µM
- TGI (SNB-19 CNS): > 100 µM
- GI50 (CCRF-CEM leukemia): 31.1 µM
- TGI (CCRF-CEM leukemia): > 100 µM
- GI50 (RXF 393 renal): > 79.7 µM
- TGI (RXF 393 renal): > 100 µM
- GI50 (DU-145 prostate): 37.7 µM
- TGI (DU-145 prostate): > 100 µM
- GI50 (IGROV1 ovarian): 0.926 µM
- TGI (IGROV1 ovarian): > 100 µM
- GI50 (OVCAR-8 ovarian): 31.5 µM
- TGI (OVCAR-8 ovarian): > 100 µM
- GI50 (TK-10 renal): 0.64 µM
- TGI (TK-10 renal): > 37.1 µM
- GI50 (SW-620 colon): 35.9 µM
- TGI (SW-620 colon): > 100 µM
- GI50 (A498 renal): 0.018 µM
- TGI (A498 renal): 0.0719 µM
- GI50 (SN12C renal): 88.7 µM
- TGI (SN12C renal): > 100 µM
- GI50 (HCT-116 colon): 5.71 µM
- TGI (HCT-116 colon): > 100 µM
- GI50 (T-47D breast): 1.44 µM
- TGI (T-47D breast): 40 µM
- GI50 (HL-60(TB) leukemia): 22.9 µM
- TGI (HL-60(TB) leukemia): > 100 µM
- GI50 (SK-OV-3 ovarian): 26.1 µM
- TGI (SK-OV-3 ovarian): > 100 µM
- GI50 (KM12 colon): 39.1 µM
- TGI (KM12 colon): > 100 µM
- GI50 (LOX IMVI melanoma): 66.5 µM
- TGI (LOX IMVI melanoma): > 100 µM
- GI50 (HS 578T breast): 70.6 µM
- TGI (HS 578T breast): > 100 µM
- GI50 (RPMI-8226 leukemia): 28.3 µM
- TGI (RPMI-8226 leukemia): > 100 µM
- GI50 (MDA-MB-435): 24.1 µM
- TGI (MDA-MB-435): > 100 µM
- GI50 (MDA-MB-231 breast): 67.2 µM
- TGI (MDA-MB-231 breast): > 100 µM
- GI50 (OVCAR-5 ovarian): 0.199 µM
- TGI (OVCAR-5 ovarian): 1.52 µM
- GI50 (SNB-75 CNS): > 55.3 µM
- TGI (SNB-75 CNS): > 100 µM
- GI50 (MCF7 breast): 0.752 µM
- TGI (MCF7 breast): > 95 µM
- GI50 (SK-MEL-5 melanoma): 17.5 µM
- TGI (SK-MEL-5 melanoma): 41.5 µM
- GI50 (SR leukemia): 26.8 µM
- TGI (SR leukemia): > 100 µM
